The results in this text go back to patent publication US10544149B2, “Bicyclic alkyne derivatives and uses thereof” (Agency for Science, Technology and Research, priority 2013, dated 2020).

Data set [1] has as its target MNK1 (Homo sapiens, UniProt Q9BUB5). In words: MNK1 enzymatic assay. It is filed as biochemical.
Data set [2] concerns the target MNK2 (Homo sapiens, UniProt Q9HBH9). In words: MNK2 enzymatic assay. The data set is classed as biochemical.
The test system of data set [3] is eIF4e phosphorylation in Hela cell line. In words: eIF4e phosphorylation inhibition in Hela cell line. It is filed as cell-based. The settings on record: Homo sapiens, cellular.

Counter-ions that a name gives are not always drawn.

Usually melting point stands for the temperature, or range, at which the solid turns liquid. As usually defined, the IC50 is the concentration that inhibits the measured activity by half.

Sequence of MNK2 (Q9HBH9 whole entry): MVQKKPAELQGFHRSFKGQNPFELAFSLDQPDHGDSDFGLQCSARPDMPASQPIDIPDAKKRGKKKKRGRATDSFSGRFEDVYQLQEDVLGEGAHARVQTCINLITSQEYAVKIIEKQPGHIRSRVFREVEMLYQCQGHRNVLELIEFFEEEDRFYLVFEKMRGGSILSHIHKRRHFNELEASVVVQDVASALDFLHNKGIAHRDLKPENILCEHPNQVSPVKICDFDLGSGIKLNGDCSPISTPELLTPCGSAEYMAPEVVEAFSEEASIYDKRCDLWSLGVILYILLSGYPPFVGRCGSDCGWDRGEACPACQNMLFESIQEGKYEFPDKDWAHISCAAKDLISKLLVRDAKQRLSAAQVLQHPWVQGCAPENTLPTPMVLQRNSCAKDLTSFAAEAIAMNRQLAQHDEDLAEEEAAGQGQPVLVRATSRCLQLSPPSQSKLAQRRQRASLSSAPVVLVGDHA
Sequence of MNK1 (Q9BUB5 whole entry): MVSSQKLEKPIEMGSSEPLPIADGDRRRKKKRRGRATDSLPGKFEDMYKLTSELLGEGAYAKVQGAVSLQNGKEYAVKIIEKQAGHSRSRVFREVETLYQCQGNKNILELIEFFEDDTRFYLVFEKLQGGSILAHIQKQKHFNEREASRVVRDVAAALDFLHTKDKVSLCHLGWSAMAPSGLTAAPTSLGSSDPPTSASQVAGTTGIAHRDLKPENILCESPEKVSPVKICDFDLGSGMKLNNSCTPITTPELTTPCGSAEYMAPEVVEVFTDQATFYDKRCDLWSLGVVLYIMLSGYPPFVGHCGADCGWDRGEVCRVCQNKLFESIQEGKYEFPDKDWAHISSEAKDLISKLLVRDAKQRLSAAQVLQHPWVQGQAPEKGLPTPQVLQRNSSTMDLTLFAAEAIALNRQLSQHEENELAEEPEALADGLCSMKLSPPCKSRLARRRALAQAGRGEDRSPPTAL

The compound `Nc1cc(C#Cc2cnn3ccc(-c4ccc(C(=O)N5CCOCC5)cc4)nc23)ccn1` [Example 117, (4-(3-((2-aminopyridin-4-yl)ethynyl)pyrazolo[1,5-a]pyrimidin-5 yl)phenyl)(morpholino)methanone] returned a melting point of 129.8 to 130.6 °C.

With `CN1CCN(C(=O)c2ccc(-c3ccc4ncc(C#Cc5ccnc(N)c5)n4n3)cc2)CC1=O` [Example 77, 4-(4-(3-((2-aminopyridin-4-yl)ethynyl)imidazo[1,2-b]pyridazin-6-yl)benzoyl)-1-methylpiperazin-2-one], the melting point lay within 193.6 to 194.6 °C.

In turn, `Nc1cc(C#Cc2cnc3ccc(-c4ccc(C(=O)N5CCOCC5)cc4F)nn23)ccn1` (as salt: salt) [Example 122, (4-(3-((2-aminopyridin-4-yl)ethynyl)imidazo[1,2-b]pyridazin-6-yl)-3-fluorophenyl)(morpholino)methanone formate salt] yielded a melting point of 78.2 to 79.4 °C.

With `Cc1cnccc1C#Cc1cnn2ccc(-c3ccc(C(=O)N4CCOCC4)cc3)nc12` [Example 116, (4-(3-((3-methylpyridin-4-yl)ethynyl)pyrazolo[1,5-a]pyrimidin-5-yl)phenyl)(morpholino)methanone], the melting point fell in the range of 233 to 236 °C. In data set [1], this compound registered a half-inhibitory concentration (IC50) of less than 0.5 µM. For the same compound, in data set [2], the IC50 was less than 0.5 µM. In data set [3], this compound returned an IC50 of less than 5 µM.

Compound `O=C(c1ccc(-c2cn3c(C#Cc4ccnc5[nH]ncc45)cnc3cn2)cc1)N1CCOCC1` [Example 90, (4-(3-((1H-pyrazolo[3,4-b]pyridin-4-yl)ethynyl)imidazo[1,2-a]pyrazin-6-yl)phenyl) (morpholino)methanone] gave a melting point of 192.8 to 193.8 °C.

Regarding `CN1CCN(C(=O)c2ccc(-c3ccc4ncc(C#Cc5ccnc6[nH]ccc56)n4n3)cc2)CC1=O` [Example 85, 4-(4-(3-((1H-pyrrolo[2,3-b]pyridin-4-yl)ethynyl)imidazo[1,2-b]pyridazin-6-yl)benzoyl)-1-methylpiperazin-2-one], the melting point fell in the range of 207.2 to 208.2 °C.

The compound `CC(=O)Nc1cc(C#Cc2cnc3ccc(-c4ccc(C(=O)N5CCN(C)CC5)cc4)nn23)ccn1` [Example 87, N-(4-((6-(4-(4-methylpiperazine-1-carbonyl)phenyl)imidazo[1,2-b]pyridazin-3-yl)ethynyl)pyridin-2-yl)acetamide] gave a melting point of 216.8 to 217.9 °C.

`Nc1cc(C#Cc2cnc3cnc(-c4ccc(C(=O)N5CCOCC5)c(Cl)c4)cn23)ccn1` [Example 93, (4-(3-((2-aminopyridin-4-yl)ethynyl)imidazo[1,2-a]pyrazin-6-yl)-2-chlorophenyl) (morpholino)methanone] gave a melting point of 119.8 to 121.1 °C.

The compound `Nc1cc(C#Cc2cnc3cnc(-c4ccc(C(=O)N5CCOCC5)cc4)cn23)ccn1` [Example 88, (4-(3-((2-aminopyridin-4-yl)ethynyl)imidazo[1,2-a]pyrazin-6-yl)phenyl)(morpholino)methanone] returned a melting point of 143.5 to 144.2 °C.

The compound `Nc1cc(C#Cc2cnc3ccc(-c4ccc(C(=O)N5CCOCC5)c(C(F)(F)F)c4)nn23)ccn1` [Example 83, (4-(3-((2-aminopyridin-4-yl)ethynyl)imidazo[1,2-b]pyridazin-6-yl)-2-(trifluoromethyl)phenyl) (morpholino)methanone] returned a melting point of 258.5 to 258.9 °C.

`O=C(c1ccc(-c2ccc3ncc(C#Cc4ccncc4)n3c2)cc1)N1CCOCC1` [Example 94, morpholino(4-(3-(pyridin-4-ylethynyl)imidazo[1,2-a]pyridin-6-yl)phenyl)methanone] came in with a melting point of 165 to 166 °C.

With `Nc1cc(C#Cc2cnc3ccc(-c4ccc(C(=O)N5CCOCC5)c(Cl)c4)nn23)ccn1` [Example 82, (4-(3-((2-aminopyridin-4-yl)ethynyl)imidazo[1,2-b]pyridazin-6-yl)-2-chlorophenyl)(morpholino)methanone], the melting point is 193.7 to 194.8 °C.

`CN1CCN(C(=O)c2ccc(-c3ccc4ncc(C#Cc5ccnc(N)c5)n4n3)cc2)CC1` [Example 76, (4-(3-((2-aminopyridin-4-yl)ethynyl)imidazo[1,2-b]pyridazin-6-yl)phenyl)(4-methylpiperazin-1-yl)methanone] yielded a melting point of 120 to 122 °C.

Regarding `Cc1cnccc1C#Cc1cnc2ccc(-c3ccc(C(=O)N4CCOCC4)cc3)cn12` [Example 95, (4-(3-((3-methylpyridin-4-yl)ethynyl)imidazo[1,2-a]pyridin-6-yl)phenyl) (morpholino)methanone], the melting point was in the range of 99 to 104 °C.

As to `CC(=O)Nc1cc(C#Cc2cnc3ccc(-c4ccc(C(=O)N5CCN(C)C(=O)C5)cc4)nn23)ccn1` [Example 84, N-(4-((6-(4-(4-methyl-3-oxopiperazine-1-carbonyl)phenyl)imidazo[1,2-b]pyridazin-3-yl)ethynyl)pyridin-2-yl)acetamide], the melting point was 258.2 to 259.5 °C.

On to `O=C(c1ccc(-c2ccc3ncc(C#Cc4ccnc5[nH]ccc45)n3c2)cc1)N1CCOCC1` [Example 099, (4-(3-((1H-pyrrolo[2,3-b]pyridin-4-yl)ethynyl)imidazo[1,2-a]pyridin-6-yl)phenyl)(morpholino)methanone], for which the results for the IC50 in data set [1], in data set [2] and in data set [3] were less than 0.5 µM, less than 0.5 µM and less than 5 µM, respectively.

For the compound `Nc1cc(C#Cc2cnc3ccc(-c4ccc(C(=O)N5CCOCC5)cc4)cn23)ccn1` [Example 96, (4-(3-((2-aminopyridin-4-yl)ethynyl)imidazo[1,2-a]pyridin-6-yl)phenyl)(morpholino)methanone], the melting point was 133 to 138 °C.

Take `CC(=O)Nc1cc(C#Cc2cnc3ccc(-c4ccc(C(=O)N5CCNCC5)cc4)cn23)ccn1` [Example 101, N-(4-((6-(4-(piperazine-1-carbonyl)phenyl)imidazo[1,2-a]pyridin-3-yl)ethynyl)pyridin-2-yl)acetamide]: the results for the IC50 in data set [1], in data set [2] and in data set [3] were less than 0.5 µM, less than 0.5 µM and less than 5 µM, respectively.

In the case of `Cc1ccccc1C#Cc1cnc2ccc(-c3ccc(C(=O)N4CCN(C)CC4)cc3)nn12` [Example 001, (4-methylpiperazin-1-yl)(4-(3-(o-tolylethynyl)imidazo[1,2-b]pyridazin-6-yl)phenyl)methanone], the half-maximal inhibitory concentration (IC50) in data set [1] was less than 0.5 µM; in data set [2], less than 0.5 µM; in data set [3], less than 5 µM.

In the case of `O=C(c1ccc(-c2ccc3ncc(C#Cc4cccnc4)n3n2)cc1)N1CCOCC1` [Example 010, morpholino(4-(3-(pyridin-3-ylethynyl)imidazo[1,2-b]pyridazin-6-yl)phenyl)methanone], the IC50 was less than 0.5 µM in data set [1], less than 0.5 µM in data set [2] and less than 5 µM in data set [3].

For the compound `CS(=O)(=O)Nc1cccc(C#Cc2cnc3ccc(-c4ccc(C(=O)N5CCOCC5)cc4)nn23)c1` [Example 011, N-(3-((6-(4-(morpholine-4-carbonyl)phenyl)imidazo[1,2-b]pyridazin-3-yl)ethynyl)phenyl)methane sulfonamide], the IC50 in data set [1] was less than 0.5 µM; in data set [2], less than 0.5 µM; in data set [3] it was less than 5 µM.

Consider `O=C(c1ccc(-c2ccc3ncc(C#Cc4ccnc(Nc5cccnc5)c4)n3n2)cc1)N1CCOCC1` [Example 049, morpholino(4-(3-((2-(pyridin-3-ylamino)pyridin-4-yl)ethynyl)imidazo[1,2-b]pyridazin-6 yl)phenyl)methanone], for which the half-maximal inhibitory concentration (IC50) in data set [1] was less than 0.5 µM; in data set [2], less than 0.5 µM; in data set [3], less than 5 µM.

With `O=C(c1ccc(-c2ccc3ncc(C#Cc4cnc5cc[nH]c5c4)n3n2)cc1)N1CCOCC1` [Example 020, (4-(3-((1H-pyrrolo[3,2-b]pyridin-6-yl)ethynyl)imidazo[1,2-b]pyridazin-6-yl)phenyl) (morpholino)methanone], the half-inhibitory concentration (IC50) in data set [1] is less than 0.5 µM; in data set [2], less than 0.5 µM; in data set [3] it was less than 5 µM.

In the case of `Nc1cc(C#Cc2cnc3ccc(-c4ccc(C(=O)N5CCOCC5)cc4F)nn23)ccn1` [Example 122, (4-(3-((2-aminopyridin-4-yl)ethynyl)imidazo[1,2-b]pyridazin-6-yl)-3-fluorophenyl)(morpholino)methanone formate salt], the IC50 was less than 0.5 µM in data set [1], less than 0.5 µM in data set [2] and less than 5 µM in data set [3].

As to `O=C(c1ccc(-c2ccc3ncc(C#Cc4ccnc5[nH]ncc45)n3c2)cc1)N1CCOCC1` [Example 097, (4-(3-((1H-pyrazolo[3,4-b]pyridin-4-yl)ethynyl)imidazo[1,2-a]pyridin-6-yl)phenyl)(morpholino)methanone], the concentration for half-maximal inhibition (IC50) in data set [1] was less than 0.5 µM; in data set [2], less than 0.5 µM; in data set [3], less than 5 µM.

As to `Nc1cc(C#Cc2cnc3ccc(-c4ccc(C(=O)N5CCOCC5)cc4)nn23)c2cc[nH]c2n1` [Example 017, (4-(3-((6-amino-1H-pyrrolo[2,3-b]pyridin-4-yl)ethynyl)imidazo[1,2-b]pyridazin-6-yl)phenyl)(morpholino)methanone], the values for the IC50 in data set [1], in data set [2] and in data set [3] were less than 0.5 µM, less than 0.5 µM and less than 5 µM, respectively.

In the case of `Nc1cc(C#Cc2cnn3ccc(-c4ccc(C(=O)N5CCOCC5)cc4F)nc23)ccn1` (as salt: salt) [Example 123, (4-(3-((2-aminopyridin-4-yl)ethynyl)pyrazolo[1,5-a]pyrimidin-5-yl)-3-fluorophenyl)(morpholino) methanone formic acid salt], the melting point is 57.6 to 58.9 °C.

As for `O=C(c1ccc(-c2ccc3ncc(C#Cc4cn[nH]c4)n3n2)cc1)N1CCOCC1` [Example 028, (4-(3-((1H-pyrazol-4-yl)ethynyl)imidazo[1,2-b]pyridazin-6-yl)phenyl)(morpholino)methanone], the concentration for half-maximal inhibition (IC50) in data set [1] was less than 0.5 µM; in data set [2], less than 0.5 µM; in data set [3] it was less than 5 µM.

On to `Nc1cc(C#Cc2cnc3ccc(-c4ccc(C(=O)N5CCNCC5)cc4)nn23)ccn1` [Example 046, (4-(3-((2-aminopyridin-4-yl)ethynyl)imidazo[1,2-b]pyridazin-6-yl)phenyl)(piperazin-1-yl)methanone], for which the 50% inhibitory concentration (IC50) in data set [1] is less than 0.5 µM; in data set [2], less than 0.5 µM; in data set [3], less than 5 µM.
